One substance from US9073982B2, “Targets for regulation of angiogenesis” (The University of North Carolina at Chapel Hill, priority 2008, dated 2015) can be followed below.

The test system of assay [1] is chick chorioallantoic membrane. As to the kind of experiment: Chick chorioallantoic membrane (CAM) assay. The note with it: 100 ng per disk, evaluated day 3 after disk placement. Type of assay: in vivo, chicken. The protocol:
On day 4, the eggs were cracked into sterile Petri dishes and incubated at 99° F. in 3% CO2, 65% humidity. For application of drug onto the CAM, Whatman grade 1 filter paper was cut into circles with a 6 mm diameter paper punch and autoclaved. To decrease inflammatory effects of the disk, the discs were soaked in 1 ml of 3.0 mg/ml cortisone acetate in absolute ETOH and air dried for 60 min in a laminar flow hood. On day 8, 5 disks per egg were placed on the outer third of the CAM, 2-3 mm from a vessel. Control PBS 7 μl was added to the discs for the control CAMs, and SFRP2 100 ng/7 μl PBS was added to the disks for the treated CAMs (n=5 control disks and 5 SFRP2-treated disks). The CAMs were evaluated under a stereomicroscope on day 3 after disk placement. Pictures were taken with a Wild M-4 70 Macrosystem, and angiogenesis was quantified using Metamorph Software with an angiogenesis module.
Fertilized chickens eggs (NC State University Chicken Research Faint) were incubated at 100.4° F. in an egg turner (Model#1588 Genesis Hova-Bator, GQF Mfg. Co., Inc.) for 3 days. […] CAMs were evaluated under a stereomicroscope on day 3 after disk placement. Pictures were taken with a Wild M-4 70 Macrosystem and angiogenesis was quantified using Metamorph Software with an angiogenesis module.

Assay [2] concerns Human coronary artery endothelial cells (HCAEC). As to the kind of experiment: Hypoxia-induced endothelial cell apoptosis assay (caspase 3). It is filed as cell-based. To be noted: Jak3 20 nM-200 pM, 36 hours hypoxia. The protocol:
Human coronary artery endothelial cells (HCAEC) were used for apoptosis assays because apoptosis could not be induced in the MEC cells. HCAECs were grown in 10-cm dishes (Becton Dickinson, Franklin Lakes, N.J.) with endothelial cell basal medium-2 (EGM-2) BulletKit media (Clonetics, San Diego, Calif.) until 80% confluent. Medium was then replaced with optimal medium according to different assays. The hypoxic condition was created by incubating HCAECs in EGM-2 media without BulletKit growth factors at 37° C. in a hypoxia chamber with an atmosphere of 5% CO2/95% N2. The oxygen level in the chamber was controlled to 1.0%. Apoptosis was determined by measuring the activity of cleaved caspase 3 by using a caspase-specific fluorogenic substrate according to the protocol for the Caspase 3 Assay Kit (Sigma). HCAECs were lysed after treatment with concentrations of SFRP2 (70 pM and 700 pM) for 36 h under hypoxia. […] The enzyme-catalyzed release of 7-amino-4-methyl coumarin (AMC) was measured by a fluorescence microplate reader.
HCAEC were seeded onto a 96 well plate at 2,000 cells/well in EGM-2 with BulletKit growth supplements. […] Apoptosis was determined by measuring the activity of cleaved caspase 3 by using a caspase-specific fluorogenic substrate according to the protocol for the Apo-ONE® Homogeneous Caspase-3/7 Assay (Promega, Madison, Wis.). […]

The test system of assay [3] is HCAEC. Put plainly: Scratch wound assay on HCAEC. Type of assay: cell-based, human. The note with it: Jak3 20 nM-200 pM. The protocol: HCAEC were plated at 10,000 cells/well onto a 96 well plate and allowed to become confluent in EGM-2 with BulletKit growth supplements. The cells were quiesced in EGM-2 with 0.1% FBS without BulletKit growth supplements for 18 hours. The wound was formed using a 1 ml pipette tip. A 20 nM-200 pM dose curve of recombinant human Jak3 (Millipore, Temecula, Calif.) was added to the cells. Each concentration was performed in triplicate and the experiment was repeated three times with similar results. Migration distance was measured at 12 hours and then every 4 hours until wound closure in all wells. Data were recorded as percent of wound closed at each time point.

In assay [4] the test system is HCAEC. As to the kind of experiment: Tube formation assay on HCAEC. It is filed as cell-based, human. The note with it: Jak3 20 nM-200 pM, 8 hours. The protocol:
ECMATRIX (Chemicon, Temecula, Calif.) was thawed, diluted, and solidified in a 96 well plate according to the manufacturer's instructions. HCAEC were seeded onto the matrix at 2,000 cells/well in 150 μl of EGM-2 with 5% FBS without BulletKit growth supplements. A 20 nM-200 pM dose curve of recombinant human Jak3 was added to the cells and the plates were returned to 37° C., 5% CO2 for 8 hours. Each concentration was performed in triplicate and the experiment was repeated three times with similar results. Wells were evaluated under a Nikon Eclipse TS100 microscope at 4× magnification and pictures were taken with a Nikon CoolPix 995 digital camera. Angiogenesis was quantified by counting branch points in the resulting image.
The role of STAT3 activation in Jak3-mediated tube formation was evaluated using a small peptide inhibitor of phosphorylated STAT3 (P-STAT3). ECMATRIX was solidified in wells of a 96 well plate. HCAEC were seeded onto the matrix at 2,000 cells/well in 150 μl of EGM-2 with 5% FBS without additional BulletKit growth supplements. Wells were treated in triplicate with: PBS alone, PBS+100 μM P-STAT3 inhibitor, 20 nM Jak3, or 20 nM Jak3+100 μM P-STAT3 inhibitor. Wells were photographed at 8 hours and tube formation was quantified by counting branch points in the resulting image.

In assay [5] the test system is HCAEC. Put plainly: Endothelial cell proliferation assay (MTT). It is filed as cell-based, human. The note with it: Jak3, 48 hours. The protocol: HCAEC were seeded on a 96 well plate at a concentration of 2000 cells/well and allowed to proliferate for 24 hrs in EGM-2 with BulletKit growth supplements. The cells were then quiesced in EGM-2 with 0.1% FBS without BulletKit growth supplements for 18 hours. Media was replaced with fresh EGM-2 with BulletKit growth supplements and the cells were treated in triplicate with: PBS alone; recombinant murine VEGF (60 ng/mL); or Jak3 (at a concentration of 200 nM-200 pM). After 48 h, 10 μl of the colorimetric compound 3-(4,5-dimethylthiazol-2-yl)-2,5-diphenyl tetrazolium bromide (MTT) (5 mg/mL) was added to each well and allowed to incubate for 4 h at 37° C. All but 25 μl of media in each well was removed and 50 μl dimethyl sulfoxide (DMSO) was added. Following a 10 min incubation at 37° C., the A540 was measured using a microplate reader. A540 was converted to number of cells based on a standard curved created by seeding a 96-well plate with known concentrations of cells, as determined by hemocytometry, and measuring their A540 after 4 hrs incubation with MTT.

In the case of “Jak3: recombinant human Jak3 (Millipore)”, the “angiogenesis on the CAM (branch points, segments, tube area, tube length)” value in assay [1] is recorded as “induced angiogenesis on the CAM”. Besides, in assay [2], the “hypoxia induced endothelial cell apoptosis (caspase 3 activity)” value was “protected against hypoxia induced endothelial cell apoptosis”. Moreover, the “endothelial cell migration (percent of wound closed)” value in the assay on HCAEC [3] is “increased endothelial cell migration”. Besides, the “endothelial tube formation (branch points)” value in the assay with HCAEC [4] is listed as “induced by Jak3 in a concentration-dependent manner”. Further, in the assay with HCAEC [5], the cell proliferation entry is “increased cell proliferation”.
